The text below walks through data of patent US20090203737A1, “Pyrrole Derivatives as Positive Allosteric Modulators of Metabotropic Receptors” (priority 2005, published 2009).

One series addresses T1, rat mGluR5 receptor (Rattus norvegicus, UniProt P31424).
T1 construct: expressed in transfected cells
Nature of the series: mGluR5 assay on HEK-expressing rat mGluR5 (fluorescent cell based Ca2+ mobilization assay). The following applies: for activation of rat mGluR5 receptors: HEK-rat mGluR5 cell line, without co-addition of glutamate or mGluR5 agonist; for EC50: HEK-293 cells stably expressing rat mGluR5, no co-addition of glutamate, mean of at least three independent experiments in duplicate, read-out: Ca++ Flux (mean EC50). The protocol:
Positive functional expression of HEK-293 cells stably expressing rat mGluR5 receptor was determined by measuring intracellular Ca^2+ changes using a Fluorometric Imaging Plate Reader (FLIPR, Molecular Devices, Sunnyvale, Calif.) in response to glutamate or selective known mGluR5 agonists and antagonists. Rat mGluR5 RT-PCR products in HEK-293 cells were sequenced and found 100% identical to rat mGluR5 Genbank reference sequence (NM_017012). HEK-293 cells expressing rmGluR5 were maintained in media containing DMEM, dialyzed Fetal Bovine Serum (10%), Glutamax™ (2 mM), Penicillin (100 units/ml), Streptomycin (100 μg/ml), Geneticin (100 μg/ml) and Hygromycin-B (40 μg/ml) at 37° C./5% CO2.
After one day of incubation, cells were washed with assay buffer containing: 142 mM NaCl, 6 mM KCl, 1 mM […], 1 mM CaCl2, 20 mM HEPES, 1 g/L glucose, 0.125 mM sulfinpyrazone, pH 7.4. After 60 min of loading with 4 uM Fluo-4 (TefLabs, Austin, Tex.), the cells were washed three times with 50 μl of PBS Buffer and resuspended in 45 μl of assay Buffer. The plates were then transferred to a Fluorometric Imaging Plate Reader (FLIPR, Molecular Devices, Sunnyvale, Calif.) for the assessment of intracellular calcium flux. After monitoring the baseline fluorescence for 10 seconds, increasing concentrations of representative compound (from 0.01 to 60 μM) of the present invention diluted in Assay Buffer (15 μl of 4× dilutions) was added to the cell. The final DMSO concentration in the assay was 0.3%. In each experiment, fluorescence was then monitored as a function of time for 3 minutes and the data analyzed using Microsoft Excel and GraphPad Prism. Each data point was also measured two times.
Under these experimental conditions, this HEK-rat mGluR5 cell line is able to directly detect positive allosteric modulators without the need of co-addition of glutamate or mGluR5 agonist.
The concentration-response curves of representative compounds of the present invention were generated using the Prism GraphPad software (Graph Pad Inc, San Diego, USA). The curves were fitted to a four-parameter logistic equation:
(Y=Bottom+(Top−Bottom)/(1+10̂((LogEC50−X)*Hill Slope)
allowing determination of EC50 values.
The Table 1 below represents the mean EC50 obtained from at least three independent experiments of selected molecules performed in duplicate.
On the technique in general: Calcium flux is commonly read through the fluorescence of an indicator in the cells.

The target in series [1] is T2, mGluR5 (Rattus norvegicus, UniProt P31424).
T2 construct: positive allosteric modulators of mGluR5 receptors in native preparations; endogenous in cells; host or cells: primary cortical astrocytes from Sprague-Dawley rat embryos (E16-19)
T2 sequence (P31424 21-1203): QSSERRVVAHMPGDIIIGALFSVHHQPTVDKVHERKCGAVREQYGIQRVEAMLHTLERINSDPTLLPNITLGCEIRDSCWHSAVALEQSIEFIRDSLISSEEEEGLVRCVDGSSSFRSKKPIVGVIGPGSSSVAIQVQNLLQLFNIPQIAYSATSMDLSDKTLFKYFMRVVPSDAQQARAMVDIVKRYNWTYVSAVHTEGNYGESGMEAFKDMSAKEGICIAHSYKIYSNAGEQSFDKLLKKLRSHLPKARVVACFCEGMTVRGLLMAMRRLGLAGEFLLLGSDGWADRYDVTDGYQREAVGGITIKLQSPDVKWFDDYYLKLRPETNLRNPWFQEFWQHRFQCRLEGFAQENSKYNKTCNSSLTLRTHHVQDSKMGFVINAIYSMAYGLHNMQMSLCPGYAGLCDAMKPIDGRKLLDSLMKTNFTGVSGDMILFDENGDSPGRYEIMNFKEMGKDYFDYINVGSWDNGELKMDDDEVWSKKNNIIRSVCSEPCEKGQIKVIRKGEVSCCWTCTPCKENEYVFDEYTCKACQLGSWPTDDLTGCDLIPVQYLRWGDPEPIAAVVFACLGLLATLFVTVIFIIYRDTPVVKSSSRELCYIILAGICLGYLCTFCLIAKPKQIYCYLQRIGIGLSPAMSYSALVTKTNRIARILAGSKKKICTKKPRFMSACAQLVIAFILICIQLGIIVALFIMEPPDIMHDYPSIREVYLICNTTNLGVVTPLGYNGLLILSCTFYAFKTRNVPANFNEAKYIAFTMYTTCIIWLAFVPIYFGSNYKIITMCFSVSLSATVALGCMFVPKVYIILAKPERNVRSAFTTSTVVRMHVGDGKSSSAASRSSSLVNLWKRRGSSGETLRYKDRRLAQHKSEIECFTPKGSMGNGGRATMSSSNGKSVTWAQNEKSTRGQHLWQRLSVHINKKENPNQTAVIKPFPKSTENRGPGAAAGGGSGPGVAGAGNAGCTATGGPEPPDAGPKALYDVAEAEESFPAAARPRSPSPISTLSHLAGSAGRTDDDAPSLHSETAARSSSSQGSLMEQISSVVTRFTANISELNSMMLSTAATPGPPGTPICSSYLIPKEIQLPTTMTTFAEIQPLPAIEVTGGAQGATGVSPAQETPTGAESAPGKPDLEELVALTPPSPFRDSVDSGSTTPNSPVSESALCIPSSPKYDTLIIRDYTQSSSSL
Conditions: Liu et al (2006), Zhang et al (2005); cited from earlier work.

The target of series [2] is T2, mGluR5. The series is described as follows: mGluR5 binding assay ([3H]-MPEP, rat brain membranes). The following applies: 3 nM [3H]-MPEP, 1 h at 4° C. The source says: Activity of compounds of the invention was examined following a radioligand binding technique using whole rat brain and tritiated 2-methyl-6-(phenylethynyl)-pyridine ([^3H]-MPEP) as a ligand following similar methods than those described in Gasparini et al. (2002) Bioorg. Med. Chem. Lett. 12:407-409 and in Anderson et al. (2002) J. Pharmacol. Exp. Ther. 303 (3) 1044-1051.
Cortices were dissected out from brains of 200-300g Sprague-Dawley rats (Charles River Laboratories, L'Arbresle, France). Tissues were homogenized in 10 volumes (vol/wt) of ice-cold 50 mM HEPES-NaOH (pH 7.4) using a Polytron disrupter (Kinematica AG, Luzern, Switzerland) and centrifuged for 30 min at 40,000 g. (4° C.). […] Protein concentration was determined by the Bradford method (Bio-Rad protein assay, Reinach, Switzerland) with bovine serum albumin as standard.
Membranes were thawed and resuspended in binding buffer containing 20 mM HEPES-NaOH, 3 mM MgCl2, 3 mM CaCl2, 100 mM NaCl, pH 7.4. […] Radioactivity was determined by liquid scintillation spectrometry using a 96-well plate reader (TopCount, Perkin-Elmer, Downers Grove, USA).
The inhibition curves were generated using the Prism GraphPad program (Graph Pad Software Inc, San Diego, USA). […] The mean of IC50 obtained from at least three independent experiments of selected molecules performed in duplicate were calculated.

T1 sequence (P31424 21-1171 isoform P31424-2 limits assumed): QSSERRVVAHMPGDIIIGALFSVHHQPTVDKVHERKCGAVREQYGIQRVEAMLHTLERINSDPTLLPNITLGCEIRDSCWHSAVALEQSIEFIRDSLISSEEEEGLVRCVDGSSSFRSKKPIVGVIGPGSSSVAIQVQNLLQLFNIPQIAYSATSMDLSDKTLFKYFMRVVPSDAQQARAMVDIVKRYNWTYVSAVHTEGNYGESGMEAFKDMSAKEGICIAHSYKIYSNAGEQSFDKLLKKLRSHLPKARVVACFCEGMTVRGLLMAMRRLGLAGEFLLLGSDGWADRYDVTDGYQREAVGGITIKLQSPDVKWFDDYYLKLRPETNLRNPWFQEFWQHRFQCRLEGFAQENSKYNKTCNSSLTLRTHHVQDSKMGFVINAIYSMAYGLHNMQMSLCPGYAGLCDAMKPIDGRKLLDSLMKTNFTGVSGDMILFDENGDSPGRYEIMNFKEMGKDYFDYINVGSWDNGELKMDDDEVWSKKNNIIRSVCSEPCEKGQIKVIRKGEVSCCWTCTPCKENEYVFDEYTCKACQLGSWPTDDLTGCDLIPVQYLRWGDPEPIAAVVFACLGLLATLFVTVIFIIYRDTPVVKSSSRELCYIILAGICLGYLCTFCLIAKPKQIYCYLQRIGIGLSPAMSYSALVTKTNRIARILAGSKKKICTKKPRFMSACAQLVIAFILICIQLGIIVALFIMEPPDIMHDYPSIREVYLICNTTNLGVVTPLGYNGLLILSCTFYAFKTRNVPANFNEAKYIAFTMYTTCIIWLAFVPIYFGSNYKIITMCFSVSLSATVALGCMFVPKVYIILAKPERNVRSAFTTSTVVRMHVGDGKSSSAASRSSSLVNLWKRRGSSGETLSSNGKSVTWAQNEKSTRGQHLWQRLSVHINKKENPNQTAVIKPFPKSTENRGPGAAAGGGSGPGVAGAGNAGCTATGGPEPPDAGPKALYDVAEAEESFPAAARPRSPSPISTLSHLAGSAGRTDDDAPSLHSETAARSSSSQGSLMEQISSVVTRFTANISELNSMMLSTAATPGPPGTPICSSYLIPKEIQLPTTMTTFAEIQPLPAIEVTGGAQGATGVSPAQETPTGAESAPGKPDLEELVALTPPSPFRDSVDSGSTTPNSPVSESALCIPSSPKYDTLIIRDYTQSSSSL

In the case of `O=C(Nc1ccc(Cl)cc1CN1C(=O)c2ccccc2C1=O)c1ccccc1O` [CPPHA, reference compound], the “activation of rat mGluR5 receptors” value on rat mGluR5 receptor is recorded as “activating”. Further, the “activity in rat cortical astrocytes culture in the absence of added glutamate” value (“activity” for short) on mGluR5 [1] was “inactive”.
In the case of `N#Cc1cccc(C(=O)Nc2cc(-c3ccccc3)nn2-c2ccccc2)c1` [CDPPB, reference compound], the “activation of rat mGluR5 receptors” value on rat mGluR5 receptor is “activating”. Further, on mGluR5 [1], the “activity” value is “inactive”.
In the case of `O=C(c1ccc(F)cc1)N1CCCC(c2noc(-c3ccc[nH]3)n2)C1` (stereo not drawn) [Example 7, (4-Fluoro-phenyl)-{3-[5-(1H-pyrrol-2-yl)-[1,2,4]oxadiazol-3-yl]-piperidin-1-yl}-methanone], the melting point (in general, the temperature of the solid-liquid transition) is 158 °C. Besides, on rat mGluR5 receptor, the EC50 (as a rule, the midpoint of the concentration-response curve) is below 1000 nM.
The like results for `O=C(c1ccc(F)cc1)N1CCC[C@H](c2noc(-c3cc(C(F)(F)F)c[nH]3)n2)C1` [Example 76, (4-Fluoro-phenyl)-{(S)-3-[5-(4-trifluoromethyl-1H-pyrrol-2-yl)-[1,2,4]oxadiazol-3-yl]-piperidin-1-yl}-methanone] were, in that order, 183.5 °C and above 10000 nM.
As for `Cc1oncc1C(=O)N1CCC[C@H](c2nc(-c3ccc[nH]3)no2)C1` [Example 20, (5-Methyl-isoxazol-4-yl)-{(S)-3-[3-(1H-pyrrol-2-yl)-[1,2,4]oxadiazol-5-yl]-piperidin-1-yl}-methanone], the melting point lay within 125 to 127 °C. In addition, at rat mGluR5 receptor, the EC50 is above 10000 nM.
For `Cc1oncc1C(=O)N1CCC[C@H](c2nc(-c3cc4ccccc4[nH]3)no2)C1` [Example 19, {(S)-3-[3-(1H-Indol-2-yl)-[1,2,4]oxadiazol-5-yl]-piperidin-1-yl}-(5-methyl-isoxazol-4-yl)-methanone], the melting point lay in the range of 163 to 164 °C. Besides, the EC50 at rat mGluR5 receptor fell in the range of 1000 to 10000 nM.
The corresponding values for `Cc1cc(F)ccc1C(=O)N1CCCC(c2noc(-c3ccc[nH]3)n2)C1` (stereo not drawn) [Example 9, (4-Fluoro-2-methyl-phenyl)-{3-[5-(1H-pyrrol-2-yl)-[1,2,4]oxadiazol-3-yl]-piperidin-1-yl}-methanone] are 203 °C and 1000 to 10000 nM.
In turn, `O=C(c1ccc(F)nc1)N1CCCC(c2noc(-c3cc4ccccc4[nH]3)n2)C1` (stereo not drawn) [Example 23, (6-Fluoro-pyridin-3-yl)-{3-[5-(1H-indol-2-yl)-[1,2,4]oxadiazol-3-yl]-piperidin-1-yl}-methanone] returned a melting point of 163.1 to 164.3 °C. Besides, the EC50 on rat mGluR5 receptor was in the range of 1000 to 10000 nM.
For the compound `Fc1cccc(/C=N/N=C/c2cccc(F)c2)c1` [DFB, reference compound], the “activation of rat mGluR5 receptors” value on rat mGluR5 receptor is reported as “activating”. In addition, the “activity” value on mGluR5 [1] is “inactive”.
Take `O=C(c1ccc(F)cc1)N1CCCC(F)(c2nc(-c3ccc[nH]3)no2)C1` (stereo not drawn) [Example 47, (4-Fluoro-phenyl)-{3-fluoro-3-[3-(1H-pyrrol-2-yl)-[1,2,4]oxadiazol-5-yl]-piperidin-1-yl}-methanone]: the melting point lay within 114.8 to 118 °C. In addition, the concentration giving a half-maximal response (EC50) on rat mGluR5 receptor fell in the range of 1000 to 10000 nM.
The corresponding values for `Cc1c[nH]c(-c2noc([C@H]3CCCN(C(=O)c4ccc(F)cc4)C3)n2)c1` [Example 31, (4-Fluoro-phenyl)-{(S)-3-[3-(4-methyl-1H-pyrrol-2-yl)-[1,2,4]oxadiazol-5-yl]-piperidin-1-yl}-methanone] are 188 to 190 °C and below 1000 nM.
The corresponding values for `O=C(c1ccc(F)c(F)c1)N1CCCC(c2noc(-c3ccc[nH]3)n2)C1` (stereo not drawn) [Example 5, (3,4-Difluoro-phenyl)-{3-[5-(1H-pyrrol-2-yl)-[1,2,4]oxadiazol-3-yl]-piperidin-1-yl}-methanone] are 177 °C and below 1000 nM.
For `O=C(c1ccc(F)nc1)N1CCC[C@H](c2noc(-c3ccc[nH]3)n2)C1` [Example 21, (6-Fluoro-pyridin-3-yl)-{(S)-3-[5-(1H-pyrrol-2-yl)-[1,2,4]oxadiazol-3-yl]-piperidin-1-yl}-methanone], the melting point worked out at 147 °C. For the same compound, the EC50 on rat mGluR5 receptor is below 1000 nM.
The corresponding values for `O=C(c1ccc(F)cc1)N1CCC[C@@H](c2nc(-c3ccc[nH]3)no2)C1` [Example 37, (4-Fluoro-phenyl)-{(R)-3-[3-(1H-pyrrol-2-yl)-[1,2,4]oxadiazol-5-yl]-piperidin-1-yl}-methanone] are 132 to 133 °C and 1000 to 10000 nM.
The compound `O=C(c1ccc(F)cc1)N1CCC[C@H](c2noc(-c3cc([N+](=O)[O-])c[nH]3)n2)C1` [Example 36, (4-Fluoro-phenyl)-{(S)-3-[5-(4-nitro-1H-pyrrol-2-yl)-[1,2,4]oxadiazol-3-yl]-piperidin-1-yl}-methanone] came in with a melting point of 157 to 158 °C. Also, on rat mGluR5 receptor, the concentration for a half-maximal effect (EC50) was below 1000 nM.
For the compound `Cc1c[nH]c(-c2nc([C@H]3CCCN(C(=O)c4ccc(F)cc4)C3)no2)c1` [Example 27, (4-Fluoro-phenyl)-{(S)-3-[5-(4-methyl-1H-pyrrol-2-yl)-[1,2,4]oxadiazol-3-yl]-piperidin-1-yl}-methanone], the melting point worked out at 183 °C. At rat mGluR5 receptor, the 50% effective concentration (EC50) is below 1000 nM.
Regarding `O=C(c1ccc(F)cc1)N1CCC[C@H](c2nc(-c3ccc[nH]3)no2)C1` [Example 1, (4-Fluoro-phenyl)-{(S)-3-[3-(1H-pyrrol-2-yl)-[1,2,4]oxadiazol-5-yl]-piperidin-1-yl}-methanone], the melting point was in the range of 130 to 135 °C. Moreover, the concentration giving a half-maximal response (EC50) on rat mGluR5 receptor was below 1000 nM. Moreover, the IC50 (usually the concentration needed to halve the response being measured) on mGluR5 [2] was below 30000 nM.
In the case of `O=C(c1ccc(F)c(F)c1)N1CCC[C@H](c2nc(-c3cc(F)c[nH]3)no2)C1` [Example 51, (3,4-Difluoro-phenyl)-{(S)-3-[3-(4-fluoro-1H-pyrrol-2-yl)-[1,2,4]oxadiazol-5-yl]-piperidin-1-yl}-methanone], the melting point was 147.5 to 148.2 °C. Moreover, the EC50 on rat mGluR5 receptor was below 1000 nM.
`O=C(c1ccc(F)c(F)c1)N1CCC[C@H](c2nc(-c3ncc[nH]3)no2)C1` [Example 25, (3,4-Difluoro-phenyl)-{(S)-3-[3-(1H-imidazol-2-yl)-[1,2,4]oxadiazol-5-yl]-piperidin-1-yl}-methanone]: the melting point fell in the range of 156 to 157 °C. The 50% effective concentration (EC50) on rat mGluR5 receptor lay in the range of 1000 to 10000 nM.
